In patent US20260224489A1, “TRICINE AND CITRIC ACID-BASED CATIONIC LIPIDS WITH AROMATIC HEAD GROUPS” (SANOFI, priority 2023, published 2026):

Legend:
[1] = system: luciferase production in the lung; experiment: Delivery of Firefly Luciferase (FFL) mRNA by intratracheal administration via catheter, IVIS imaging; assay type: in vivo, male CD1 mice; conditions: for FFLuc (Avr. Rad.): single intratracheal administration, lung; for in vivo FFL protein production (FIG. 8), in words: intratracheal delivery via catheter of FFL mRNA lipid nanoparticles to mice
Protocol: Lipid nanoparticle formulations 1, 2 and 4 were administered via intratracheal pulmonary delivery. Compound B was the only cationic lipid evaluated via intratracheal pulmonary delivery with lipid nanoparticle formulation 2. Compound A was the only cationic lipid evaluated via intratracheal pulmonary delivery with lipid nanoparticle formulation 4. All other cationic lipids were evaluated via intratracheal pulmonary delivery with lipid nanoparticle formulation 1.
Lipid nanoparticle formulations 1, 2 and 4 listed in Table 1 comprising FFL mRNA, cationic lipid, DMG-PEG2000, cholesterol and DOPE were administered to male CD1 mice (6-8 weeks old) by a single intratracheal administration via Catheter® (50 μl/animal) while under anesthesia. At approximately 24 hours post-dose, the animals were dosed with luciferin at 150 mg/kg (60 mg/mi) by intraperitoneal injection at 2.5 ml/kg. After 5-15 minutes, all animals were imaged using an IVIS imaging system to measure luciferase production in the lung.

[2] = Lipid degradability by mouse lung S9 in vitro; assay type: in vitro ADME; conditions: 2 μM lipid, 2.4 mg/ml lung S9, pH 7.4, 37° C., time points up to 48 hr
Protocol: (§1) Assay format—4 or 5 time points in triplicate.
(§2) • 1) Plan experiment, compounds, and reagents. • 2) Dissolve each lipid in DMSO or IPA to make 5 mM stock, then dilute by IPA to 200 μM work solution. • 3) Thaw mouse and human lung S9. • 4) Prepare pooled incubation mixture as in the reaction formulas below on ice. • 5) Aliquot 495 μL incubation mixture prepared in step #4 to each well of a 2 mL 96-well plate. • 6) Add 5 μL compound to each well to initiate the reaction. Take t0 samples (as in step #8). • 7) Cover the plate with 2 layers of breathable seals and incubate the plate on an orbital shaker at 150 rpm in a 37° C. CO2 incubator. • 8) At each time point, pipette to mix the incubation mixture 5 times, then take 70 μL of incubation mixture to a fresh plate. Store in −20° C. freezer immediately. • 9) Add 210 μL (3× volume) of the cold stop solution to each well of the sample plates collected. Mix at 600 rpm on an orbital shaker for 15 min. • 10) Centrifuge the quenched plates at 3800 rpm for 10 min at 4° C. and transfer supernatant to fresh plates. • 11) Load the supernatant on filter plates and centrifuge again at 3800 rpm for 5 min at 4° C. Collect final samples in fresh plates for LC/MS. • 11. Time course and stop solutions: 4-5 Time points (hour): e.g. 0, 4, 8, 24, 48 hr stop solution: 1:1:1 ACN/MeOH/IPA (v/v/v) with propranolol & MC3 as internal standard. Store at 4° C.

[3] = Lipid degradability by human lung S9 in vitro; assay type: in vitro ADME; conditions: 2 μM lipid, 2.4 mg/ml lung S9, pH 7.4, 37° C., time points up to 48 hr
Protocol: as §1, §2

[4] = dose 10 μg/Animal, lipid nanoparticle formulation 1, approximately 24 hours post-dose
[5] = dose 5 μg/Animal, lipid nanoparticle formulation 1, approximately 24 hours post-dose

Row | SMILES | In vitro degradation Mouse lung S9 [2] | FFLuc (Avr. Rad.) [1, 4] | In vitro degradation Human lung S9 [3] | FFLuc (Avr. Rad.) [1, 5] | in vivo FFL protein production (FIG. 8), in words [1] | further results
1 | CCCCCCCCCCCCC(O)CN(CCCC(=O)Oc1c(OC)cc(C(=O)OCCCN(C)C)cc1OC)CC(O)CCCCCCCCCCCC (stereo not shown) [Compound A, reference compound] | – | – | – | – | – | FFLuc (Avr. Rad.) ([1]; dose 10 μg/Animal, lipid nanoparticle formulation 4, approximately 24 hours post-dose): 221,320 p/s/cm^2/sr
2 | CCCCCCCCOC(=O)CC(CC(=O)OCCCCCCCC)(OC(=O)CCN(C)C)C(=O)OCCCCCCCC [Compound B, reference compound] | – | – | – | – | – | FFLuc (Avr. Rad.) ([1]; dose 10 μg/Animal, lipid nanoparticle formulation 2, approximately 24 hours post-dose): 139,058 p/s/cm^2/sr
3 | CCCCC/C=C/COC(=O)CC(CC(=O)OC/C=C/CCCCC)(OC(=O)CCC(=O)Oc1c(OC)cc(C(=O)OCCCN(C)C)cc1OC)C(=O)OC/C=C/CCCCC [Compound III] | 6.8 h | 353,012 p/s/cm^2/sr | 17.1 h | – | – | –
4 | CCCCCCCCOC(=O)CC(CC(=O)OCCCCCCCC)(OC(=O)CCC(=O)Oc1c(OC)cc(C(=O)OCCCN(C)C)cc1OC)C(=O)OCCCCCCCC [Compound II] | 16.6 h | – | 20.2 h | 592,250 p/s/cm^2/sr | high levels of in vivo FFL protein production | –
5 | CCCCCCCCOC(=O)CC(CC(=O)OCCCCCCCC)(OC(=O)CCC(=O)Oc1c(OC)cc(C(=O)OCCN(C)C)cc1OC)C(=O)OCCCCCCCC [Compound I] | 16.2 h | – | 20.2 h | 158,516 p/s/cm^2/sr | high levels of in vivo FFL protein production | –
6 | CCCCCC#CCOC(=O)CC(CC(=O)OCC#CCCCCC)(OC(=O)CCC(=O)Oc1c(OC)cc(C(=O)OCCCN(C)C)cc1OC)C(=O)OCC#CCCCCC [Compound V] | 1.3 h | 567,300 p/s/cm^2/sr | 14.8 h | – | – | –
7 | CCCCCCCCOC(=O)CC(CC(=O)OCCCCCCCC)(OC(=O)CCC(=O)Oc1c(OC)cc(/C=C/C(=O)OCCCN(C)C)cc1OC)C(=O)OCCCCCCCC [Compound XXVI] | 36 h | – | long (over 48 h | 140,620 p/s/cm^2/sr | high levels of in vivo FFL protein production | –
8 | CCCCCCCCOC(=O)CC(CC(=O)OCCCCCCCC)(OC(=O)/C=C/C(=O)Oc1c(OC)cc(C(=O)OCCCN(C)C)cc1OC)C(=O)OCCCCCCCC [Compound X] | – | 173,197 p/s/cm^2/sr | – | – | – | –
9 | CC(C)CCCC(C)[C@H]1CCC2C3CC=C4C[C@@H](OC(=O)CCc5c[nH]cn5)CC[C@]4(C)C3CC[C@@]21C (stereo partly shown) [ICE, imidazole cholesterol ester, reference compound] | – | 7,508 p/s/cm^2/sr | – | – | – | –
